Results on five compounds are retold here after patent US20070224648A1, “Methods and compositions for the diagnosis of treatment of type 2 diabetes” (The Chancellor, Masters and Scholars of the University of …, priority 2005, published 2007).

Assay [1] has as its system type-2 diabetic human islets. The settings on record: cited from earlier work.
Assay [2] relates to isolated pancreatic islets. The experiment in a line: Insulin secretion from isolated pancreatic islets.
The next assay has as its system rodent islets. The settings on record: cited from earlier work.
For assay [3], the system named is human and rodent pancreatic islets. To be noted: preincubation in 15 μM metformin; cited from earlier work.
The test system of assay [4] is isolated wild-type islets. In words: Glucose utilization in isolated pancreatic islets. To be noted: H2O2, 20 mM glucose. Format: cell-based, mouse. The method, then:
FIG. 19: Glucose utilization in pancreatic islets isolated wild-type and homozygous NNT mutant mice (G745D). Each data point is the mean of 6 replicates each of 5 islets. Glucose utilization was measured as described in Ashcroft S J H, Weerasinghe L C C, Bassett J M, Randle P J: The pentose cycle and insulin release in mouse pancreatic islets. Biochem J (1972) 126, 525-532. Briefly, And these islets were placed in 20 microlitres of medium containing [3H]glucose and various concentrations of unlabelled glucose (as indicated). The tubes were placed in outer vials containing 0.5 ml of water. After 2-hours of incubation, metabolism was terminated by applying 5 microlitres of HCl. Then these samples were incubated for more than 18-24 hours to allow [3H]water in the incubation tube to equilibrate with the water in outer vial. Then, radioactivity of the water in the outer vial was measured. Control samples without islets were used to correct for background counts.
FIG. 20: Effect of H2O2 on glucose utilization in isolated wild-type islets. Each data point is the mean of 6 replicates each of 5 islets.

Assay [5] addresses T1, KATP channels from C57BL/6J β-cells (Mus musculus, UniProt Q61743).
T1 construct: inside-out patches excised from a C57BL/6J or CH3/HeH β-cell; endogenous in cells; host or cells: primary pancreatic β-cells isolated from C57BL/6J and C3H/HeH mice
In words: ATP sensitivity of KATP channels in inside-out patches. Format: biochemical. As for the experimental part:
The ATP sensitivity of KATP channels was measured at −60 mV in inside-out patches. Currents were digitized at 5 kHz and filtered at 2 kHz. The pipette (extracellular) contained (mmol/l): 140 KCl, 2.6 CaCl2, 1.2 MgCl2, 10 HEPES (pH 7.4 with KOH). The bath (intracellular) solution contained (mmol/l): 107 KCl, 1 MgCl2, 1 CaCl2, 10 HEPES (pH 7.2 with KOH), and K2ATP as indicated.
Concentration-response relations were obtained by alternating test solutions with control (glucose- or ATP-free) solution. The control conductance was taken as the mean of that obtained in control solution before and after application of the test agent. The current in the presence of glucose or nucleotide (I) is plotted as a fraction of that obtained in control solution (IC). Data were fit with the Hill equation: I/IC=1/(1+([X]/IC50)h) where [X] is the concentration of glucose or ATP, IC50 is the concentration giving half-maximal inhibition of the current and h is the Hill coefficient. Data are given as mean±one S.E.M.

Assay [6] has as its system β-cells isolated from C57BL/6J and C3H/HeH mice. The experiment in a line: Fura-2 imaging of intracellular calcium in isolated β-cells. In kind it is cell-based, mouse. The settings on record: 500 μmol/l tolbutamide; C57BL/6J and C3H/HeH β-cells. As for the experimental part:
Islet cells were cultured on 35 mm Fluorodishes (World Precision Instruments, Stevenage, UK) and incubated with 3 μM Fura-2-AM (Molecular Probes, Paisley, UK) for 40 min at 37° C. They were imaged at room temperature (20-24° C.) using an IonOptix fluorescence system (Boston, Mass.), with 340 nm and 380 nm dual excitation. The 510 nm emission ratio was collected at 1 Hz. Background subtraction was performed by measuring fluorescence from a cell-free region in the field of view. Cells were perfused continuously with extracellular solution (as in perforated-patch experiments), plus glucose or tolbutamide as indicated. Only data from cells that responded to 500 μmol/l tolbutamide were analysed.
(A change in cytosolic calcium serves as a functional read-out for many receptors and channels.)

In assay [7] the test system is MIN6 cells. The experiment in a line: Fura-2 calcium imaging in MIN6 cells. Format: cell-based. To be noted: for calcium response to glucose: 1 mM glutathione for 4 hours, Nnt siRNA transfected cells. As for the experimental part:
MIN6 cells were cultured on 35mm Fluorodishes (World Precision Instruments) and incubated with 3 μM Fura-2-AM (Molecular Probes) for 40 min at 37° C. They were imaged at room temperature (20-24° C.) using an IonOptix fluorescence system (Boston, Mass.), with 340 nm and 380 nm dual excitation. The 510 nm emission ratio was collected at 1 Hz. Background subtraction was performed by measuring fluorescence from a cell-free region in the field of view. Cells were perfused continuously with extracellular solution containing (mM): 137 NaCl, 5.6 KCl, 2.6 CaCl2, 1.2 MgCl2, 10 HEPES (pH 7.4 with NaOH) plus glucose or tolbutamide as indicated.

Assay [8] has as its system MIN6 cells. The experiment in a line: Insulin secretion from MIN6 cells. The settings on record: for insulin secretion: tolbutamide 200 μM; for insulin secretory response: 1 mM glutathione for 4 hours, Nnt siRNA transfected cells. Format: cell-based.

T1 sequence (Q61743 whole entry): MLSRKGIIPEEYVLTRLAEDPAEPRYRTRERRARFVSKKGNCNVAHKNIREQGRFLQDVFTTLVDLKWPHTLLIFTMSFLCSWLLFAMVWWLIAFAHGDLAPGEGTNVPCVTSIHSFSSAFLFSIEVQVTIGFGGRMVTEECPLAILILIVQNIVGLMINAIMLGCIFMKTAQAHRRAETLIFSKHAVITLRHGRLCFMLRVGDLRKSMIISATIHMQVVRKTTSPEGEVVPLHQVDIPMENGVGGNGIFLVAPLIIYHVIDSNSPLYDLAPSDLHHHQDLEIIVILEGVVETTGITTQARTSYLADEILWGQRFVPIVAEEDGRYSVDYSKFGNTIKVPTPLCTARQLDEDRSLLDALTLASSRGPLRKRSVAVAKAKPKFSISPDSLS
T1 sequence (B2RUS7 1-1588 partner): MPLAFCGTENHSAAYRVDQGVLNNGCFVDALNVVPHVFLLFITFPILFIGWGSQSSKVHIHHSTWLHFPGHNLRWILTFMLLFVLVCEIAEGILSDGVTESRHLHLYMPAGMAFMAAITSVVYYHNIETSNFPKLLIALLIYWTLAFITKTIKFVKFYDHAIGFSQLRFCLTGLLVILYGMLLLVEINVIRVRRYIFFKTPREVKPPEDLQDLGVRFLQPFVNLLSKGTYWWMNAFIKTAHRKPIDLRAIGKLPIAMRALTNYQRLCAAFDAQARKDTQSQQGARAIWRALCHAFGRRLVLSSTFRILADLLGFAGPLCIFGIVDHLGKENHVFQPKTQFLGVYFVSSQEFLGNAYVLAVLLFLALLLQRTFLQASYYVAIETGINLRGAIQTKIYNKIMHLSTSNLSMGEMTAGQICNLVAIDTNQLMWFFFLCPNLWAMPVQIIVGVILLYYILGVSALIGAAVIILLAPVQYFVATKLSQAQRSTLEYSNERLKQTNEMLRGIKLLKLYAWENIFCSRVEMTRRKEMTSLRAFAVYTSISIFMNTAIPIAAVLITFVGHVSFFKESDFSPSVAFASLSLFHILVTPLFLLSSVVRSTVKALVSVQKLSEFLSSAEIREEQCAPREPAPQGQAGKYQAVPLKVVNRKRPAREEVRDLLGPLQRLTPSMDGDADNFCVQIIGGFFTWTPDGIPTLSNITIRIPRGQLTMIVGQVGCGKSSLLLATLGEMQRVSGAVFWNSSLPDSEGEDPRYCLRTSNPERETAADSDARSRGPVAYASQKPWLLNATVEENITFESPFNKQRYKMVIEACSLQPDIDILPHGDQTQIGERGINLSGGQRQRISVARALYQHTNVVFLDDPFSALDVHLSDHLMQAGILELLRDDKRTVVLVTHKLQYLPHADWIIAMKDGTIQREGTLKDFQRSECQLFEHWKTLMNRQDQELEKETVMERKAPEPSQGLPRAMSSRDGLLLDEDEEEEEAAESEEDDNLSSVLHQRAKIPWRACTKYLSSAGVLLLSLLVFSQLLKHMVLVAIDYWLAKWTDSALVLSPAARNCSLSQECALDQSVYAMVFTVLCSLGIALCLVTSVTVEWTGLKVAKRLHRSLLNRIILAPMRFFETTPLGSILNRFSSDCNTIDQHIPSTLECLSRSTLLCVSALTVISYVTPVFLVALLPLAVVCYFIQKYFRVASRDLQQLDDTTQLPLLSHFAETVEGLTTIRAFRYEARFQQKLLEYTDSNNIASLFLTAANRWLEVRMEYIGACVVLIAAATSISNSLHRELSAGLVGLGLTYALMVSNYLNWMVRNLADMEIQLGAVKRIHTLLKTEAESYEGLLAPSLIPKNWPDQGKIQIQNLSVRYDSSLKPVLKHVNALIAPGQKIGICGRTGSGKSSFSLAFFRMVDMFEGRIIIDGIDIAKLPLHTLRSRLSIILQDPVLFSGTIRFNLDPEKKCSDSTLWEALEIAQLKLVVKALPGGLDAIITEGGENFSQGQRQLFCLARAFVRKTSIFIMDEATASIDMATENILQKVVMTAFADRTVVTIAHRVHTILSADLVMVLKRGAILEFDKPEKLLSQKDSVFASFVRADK

Regarding `CN(C)C(=N)N=C(N)N` [metformin], the insulin secretion entry in assay [1] (preincubation in 15 μM metformin) is reported as “partially restores insulin secretion in type-2 diabetic human islets”. Moreover, the glucose-stimulated insulin secretion result in assay [2] (Nnt-G745D islets, 24-hour preincubation in 15 μM metformin) was “restored glucose-stimulated insulin secretion in pancreatic islets from the Nnt-G745D mutant mouse”; in [2] (Nnt-G745D islets, 24-hour preincubation in 15 μM metformin, listed as Metformin) it was “restores insulin secretion in Nnt mouse pancreatic islets”; in assay [2] (WT islets, 24-hour preincubation in 15 μM metformin), “little effect on wild-type (WT) pancreatic islets”; in assay [2] (acute exposure to metformin), “without effect”; with rodent islets (incubation at 1 mM metformin) it was “reduces glucose-stimulated insulin secretion”. Further, the “protection from deleterious effects of elevated lipids” value in [3] is “protects human and rodent pancreatic islets from the deleterious effects of elevated lipids”.
`OO` [H2O2]: the insulin secretion entry with rodent islets (H2O2, rodent β-cells) is recorded as “inhibits insulin secretion”. Further, in assay [4], the glucose utilization entry is given as “significantly increases glucose utilization”.
As to `Nc1ncnc2c1ncn2[C@@H]1O[C@H](COP(=O)(O)OP(=O)(O)OP(=O)(O)O)[C@@H](O)[C@H]1O` [ATP], the “Hill coefficient h, ATP on KATP channel activity” value in [5] (inside-out patches, n=5) came to 0.89±0.06. Further, the IC50 in [5] (read-out: half-maximal inhibition of C57BL/6J KATP channels by ATP (IC50)) stood at 10 µM.
Regarding `CCCCNC(=O)NS(=O)(=O)c1ccc(C)cc1` [tolbutamide], in assay [6], the “change in [Ca2+]i” value is “rise in [Ca2+]i”. For the same compound, the “increase in [Ca]i” value in the assay with MIN6 cells [7] (tolbutamide 200 μM, nonsense vs Nnt siRNA transfected cells) is “stimulated a similar increase in [Ca]i in both cells transfected with nonsense and Nnt siRNA”. The calcium response result with MIN6 cells [7] (tolbutamide 200 μM, nonsense, Nnt, UCP2 or UCP2+Nnt siRNA transfected cells) was “stimulated a calcium response”. Further, the insulin secretion result in assay [2] (tolbutamide, B6-TG vs B6-TG negative islets) is “stimulated secretion comparably in both strains”; with MIN6 cells [8] (nonsense vs Nnt siRNA transfected cells), “elicited equivalent responses in both nonsense and Nnt siRNA transfected cells”; with MIN6 cells [8] (nonsense, Nnt, UCP2, UCP2/Nnt or Gck siRNA transfected cells), “stimulated a calcium response and insulin secretion”.
Take `N[C@@H](CCC(=O)N[C@@H](CS)C(=O)NCC(=O)O)C(=O)O` [glutathione]: the “secretory response to glucose” value in assay [1] (24-hour culture with 30 μM glutathione) is reported as “improved significantly”. Further, the “calcium response to glucose” value in the assay with MIN6 cells [7] is given as “partially reversed the impaired calcium”; in the assay on MIN6 cells [7] (listed as Glutathione) it was “partially restores the calcium response”. Moreover, the insulin secretory response result in the assay on MIN6 cells [8] was “partially reversed the impaired calcium and insulin secretory responses”; in the assay on MIN6 cells [8] (listed as Glutathione), “partially restores the insulin secretory response”.
